Source: paper doi:10.1101/2025.11.20.689572v1 (biorxiv, 2025)

Assays:
[1] = target: T1, DAT (Homo sapiens, UniProt Q01959); assay: biochemical; design: species or system HEK293; PDSP competitive radioligand binding, membranes of transfected HEK293 cells, filtration, Ki by Cheng-Prusoff
T1 construct: gene SLC6A3
Experimental: (§1) Competitive radioligand binding assays were performed at the NIMH Psychoactive Drug Screening Program (PDSP) using membranes from transiently transfected HEK293 cells in 96-well format as described. Complete, target-specific protocols are available at the PDSP website (https://pdsp.unc.edu/pdspweb/?site=assays). Primary screenings were run at a single test concentration (10 µM) in quadruplicate. […] Secondary assays were conducted in triplicate using 12-point serial dilutions (0, 0.1, 0.3, 1, 3, 10, 30, 100, 300 nM; 1, 3, 10 µM). Assays were performed in a final volume of 125 µL per well in binding buffer, as detailed in the NIMH PDSP protocols (e.g., standard binding buffer: 50 mM Tris-HCl, pH 7.4, 10 mM MgCl2, 0.1 mM EDTA). Radioligand concentrations were chosen near the target-specific Kd. Total and nonspecific binding were defined in the absence and presence, respectively, of 10 µM reference ligand specific for each receptor. After 90 min incubation at room temperature, reactions were terminated by vacuum filtration onto 0.3% polyethyleneimine-pretreated UniFilter-96 GF/C Microplates using a FilterMate harvester, washed three times with ice-cold buffer (50 mM Tris HCl, pH 7.4), dried, treated with MicroScint-O [compound left out] scintillation cocktails, and counted on a MicroBeta counter. Equilibrium inhibition constants (Ki) were calculated from fitted IC50 values using the Cheng–Prusoff equation [14] with the assay-specific radioligand concentration and Kd. TABLE 1. […] Results represented mean ± SEM from a minimum of 3 independent assays, each in triplicate. ND=not determined.

[2] = target: T2, HTR1A (Homo sapiens, UniProt P08908); assay: biochemical; design: species or system HEK293; PDSP competitive radioligand binding, membranes of transfected HEK293 cells, filtration, Ki by Cheng-Prusoff
T2 sequence (P08908 1-422): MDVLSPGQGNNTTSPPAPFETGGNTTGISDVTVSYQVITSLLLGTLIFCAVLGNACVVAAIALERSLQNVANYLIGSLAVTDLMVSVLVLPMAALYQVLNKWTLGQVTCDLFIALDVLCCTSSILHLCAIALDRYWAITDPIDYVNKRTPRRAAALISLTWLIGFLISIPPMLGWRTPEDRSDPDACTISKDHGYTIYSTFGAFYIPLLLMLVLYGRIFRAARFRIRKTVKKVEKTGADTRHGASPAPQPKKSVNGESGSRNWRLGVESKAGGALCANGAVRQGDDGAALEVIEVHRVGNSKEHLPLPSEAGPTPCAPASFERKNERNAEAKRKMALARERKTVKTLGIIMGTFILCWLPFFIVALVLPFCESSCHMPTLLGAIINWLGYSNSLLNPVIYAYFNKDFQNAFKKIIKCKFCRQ
Experimental: as §1

[3] = target: T3, M5 (Homo sapiens, UniProt P08912); assay: competitive radioligand binding, HEK293 membranes
T3 construct: gene CHRM5; full-length receptor; HEK293 with TRUPATH sensors (function)
T3 sequence (P08912 1-532): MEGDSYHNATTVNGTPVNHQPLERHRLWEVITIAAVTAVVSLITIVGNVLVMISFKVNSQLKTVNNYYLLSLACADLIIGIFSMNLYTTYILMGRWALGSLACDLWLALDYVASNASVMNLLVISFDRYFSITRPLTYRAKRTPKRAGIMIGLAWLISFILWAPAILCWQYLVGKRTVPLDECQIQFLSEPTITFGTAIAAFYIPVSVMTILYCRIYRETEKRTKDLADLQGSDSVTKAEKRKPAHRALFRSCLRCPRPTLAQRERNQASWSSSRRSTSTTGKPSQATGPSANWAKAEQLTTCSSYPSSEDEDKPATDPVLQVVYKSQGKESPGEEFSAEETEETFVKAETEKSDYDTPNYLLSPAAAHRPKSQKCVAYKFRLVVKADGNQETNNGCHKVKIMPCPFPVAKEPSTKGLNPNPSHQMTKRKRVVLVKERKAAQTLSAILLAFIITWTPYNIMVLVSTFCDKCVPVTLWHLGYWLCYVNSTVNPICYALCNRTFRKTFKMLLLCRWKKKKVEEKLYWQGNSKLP

[4] = target: T4, HTR2C (Homo sapiens, UniProt P28335); assay: cell-based; design: species or system HEK293; Fluo-4 Direct calcium mobilization on FLIPR-Tetra; details: Assay=Calcium; agonist mode
T4 sequence (P28335 1-458): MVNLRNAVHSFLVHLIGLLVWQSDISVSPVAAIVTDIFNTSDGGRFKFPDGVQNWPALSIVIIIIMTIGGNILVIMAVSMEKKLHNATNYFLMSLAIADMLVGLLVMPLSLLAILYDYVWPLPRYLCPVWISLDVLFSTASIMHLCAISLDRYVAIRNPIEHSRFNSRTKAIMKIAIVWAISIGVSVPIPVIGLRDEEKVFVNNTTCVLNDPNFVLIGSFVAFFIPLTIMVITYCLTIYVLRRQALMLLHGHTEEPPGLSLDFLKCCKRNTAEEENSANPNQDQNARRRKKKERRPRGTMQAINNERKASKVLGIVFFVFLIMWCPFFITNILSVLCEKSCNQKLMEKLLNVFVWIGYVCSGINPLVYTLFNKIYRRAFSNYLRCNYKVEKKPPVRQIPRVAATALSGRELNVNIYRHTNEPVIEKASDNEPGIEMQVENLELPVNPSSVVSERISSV

[5] = target: T5, M1 (Homo sapiens, UniProt P11229); assay: competitive radioligand binding, HEK293 membranes
T5 construct: gene CHRM1; full-length receptor; HEK293 with TRUPATH sensors (function)
T5 sequence (P11229 1-460): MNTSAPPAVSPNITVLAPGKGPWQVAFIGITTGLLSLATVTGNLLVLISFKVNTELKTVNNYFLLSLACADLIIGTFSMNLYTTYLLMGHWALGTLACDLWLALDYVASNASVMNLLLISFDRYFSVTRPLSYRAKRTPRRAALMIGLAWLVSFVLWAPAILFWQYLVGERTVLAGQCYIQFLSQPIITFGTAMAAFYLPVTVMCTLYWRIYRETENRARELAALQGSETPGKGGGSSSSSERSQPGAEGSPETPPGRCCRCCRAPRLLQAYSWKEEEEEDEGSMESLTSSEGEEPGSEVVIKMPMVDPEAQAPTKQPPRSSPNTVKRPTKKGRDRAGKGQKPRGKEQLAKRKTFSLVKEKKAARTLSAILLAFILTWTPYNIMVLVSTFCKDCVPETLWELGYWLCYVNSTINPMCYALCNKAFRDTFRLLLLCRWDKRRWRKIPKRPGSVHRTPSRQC

T1 sequence (Q01959 whole entry): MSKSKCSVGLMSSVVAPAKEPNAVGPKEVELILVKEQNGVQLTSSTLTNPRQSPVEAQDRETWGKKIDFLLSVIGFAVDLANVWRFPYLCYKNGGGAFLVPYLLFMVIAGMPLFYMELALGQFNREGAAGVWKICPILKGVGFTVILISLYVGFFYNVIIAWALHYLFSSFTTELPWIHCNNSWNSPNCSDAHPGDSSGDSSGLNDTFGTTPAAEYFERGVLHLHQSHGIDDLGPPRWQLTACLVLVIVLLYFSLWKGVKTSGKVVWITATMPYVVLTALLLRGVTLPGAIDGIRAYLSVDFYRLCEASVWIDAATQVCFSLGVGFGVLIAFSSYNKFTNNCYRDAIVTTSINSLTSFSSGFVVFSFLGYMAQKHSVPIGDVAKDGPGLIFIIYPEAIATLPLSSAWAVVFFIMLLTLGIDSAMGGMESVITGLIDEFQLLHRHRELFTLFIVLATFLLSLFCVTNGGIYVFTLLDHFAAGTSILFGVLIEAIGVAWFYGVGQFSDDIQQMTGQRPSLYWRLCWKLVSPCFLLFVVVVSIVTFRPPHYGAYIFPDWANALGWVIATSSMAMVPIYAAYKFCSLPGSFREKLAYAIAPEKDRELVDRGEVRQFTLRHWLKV

SMILES | Ki [1] | Ki [2] | Ki [3] | EC50 [4] | Ki [5]
CCCCCCOc1nsnc1C1=CCCN(C)C1 [Xanomeline] | > 10000 nM | 5890 nM | – | – | –
CCCCCCOc1nsnc1C1=CCCNC1 [N-desmethylxanomeline] | – | – | 93.3 nM | 1090 nM | 219 nM
